Reference: patent US11541050B2, “Pyrimidine derivatives for the treatment of viral infections” (JANSSEN SCIENCES IRELAND UC, priority 2011, dated 2023)

Key:
[1] = target: T1, human TLR7 (wild type sequence) (Homo sapiens, UniProt Q9NYK1); assay: TLR7 cellular NFκB-luc reporter assay, wild type TLR7; assay type: cell-based; set-up: unit not given here; conditions: lowest effective concentration; for TLR7-wt_LEC: wild type TLR7; for TLR 7 wt LEC: wild type TLR7 (compounds 74 onward)
T1 construct: expressed in transfected cells; host or cells: HEK293
T1 sequence (Q9NYK1 27-1049): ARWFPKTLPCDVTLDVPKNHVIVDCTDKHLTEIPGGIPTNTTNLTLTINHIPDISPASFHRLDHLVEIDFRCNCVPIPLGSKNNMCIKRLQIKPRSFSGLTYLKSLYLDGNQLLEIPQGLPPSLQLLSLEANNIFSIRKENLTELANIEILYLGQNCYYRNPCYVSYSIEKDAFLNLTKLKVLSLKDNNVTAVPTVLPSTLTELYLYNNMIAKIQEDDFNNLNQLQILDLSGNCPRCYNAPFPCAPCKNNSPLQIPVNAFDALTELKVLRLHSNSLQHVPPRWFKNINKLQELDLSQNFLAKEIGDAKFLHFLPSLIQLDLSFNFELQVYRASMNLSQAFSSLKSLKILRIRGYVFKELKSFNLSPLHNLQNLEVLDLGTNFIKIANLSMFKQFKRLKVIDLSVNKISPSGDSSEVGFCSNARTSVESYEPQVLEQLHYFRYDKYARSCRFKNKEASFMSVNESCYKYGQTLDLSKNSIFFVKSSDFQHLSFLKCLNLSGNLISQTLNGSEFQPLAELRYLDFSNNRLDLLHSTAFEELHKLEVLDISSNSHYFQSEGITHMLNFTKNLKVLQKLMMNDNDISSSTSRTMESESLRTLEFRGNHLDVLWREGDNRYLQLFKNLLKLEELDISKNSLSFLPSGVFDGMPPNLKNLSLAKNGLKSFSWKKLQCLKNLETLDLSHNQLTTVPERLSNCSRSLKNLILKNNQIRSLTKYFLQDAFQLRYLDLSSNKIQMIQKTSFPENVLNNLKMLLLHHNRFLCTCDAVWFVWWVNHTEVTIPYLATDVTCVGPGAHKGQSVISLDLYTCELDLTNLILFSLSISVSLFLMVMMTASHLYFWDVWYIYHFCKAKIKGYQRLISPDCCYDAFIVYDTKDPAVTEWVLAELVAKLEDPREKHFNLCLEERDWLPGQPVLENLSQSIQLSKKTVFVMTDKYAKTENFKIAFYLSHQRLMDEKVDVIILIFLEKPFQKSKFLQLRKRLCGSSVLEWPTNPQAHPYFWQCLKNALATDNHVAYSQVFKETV
Method in brief: (§1)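 HEK293 cells were transiently transfected for 48 h with a CMV-driven wild-type or LRR2-deletion TLR7 or TLR8 plasmid plus an NFκB-luc reporter. They were then exposed to compound for 6 h at 37 °C and luciferase was read. LEC is the concentration giving an effect at least twofold above the assay SD, from quadruplicate dose-response curves.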

[2] = tested on: human TLR7 mutant sequence comprising a deletion in the second leucine-rich repeat; assay: TLR7 cellular NFκB-luc reporter assay, mutant TLR7 with deletion in the second leucine-rich repeat; assay type: cell-based; set-up: unit not given here; conditions: lowest effective concentration
Procedure: The ability of compounds to activate human TLR7 and/or TLR8 was assessed in a cellular reporter assay using HEK293 cells transiently transfected with a TLR7 or TLR8 expression vector and NFκB-luc reporter construct. In one instance the TLR expression construct expresses the respective wild type sequence or a mutant sequence comprising a deletion in the second leucine-rich repeat of the TLR.
Briefly, HEK293 cells were grown in culture medium (DMEM supplemented with 10% FCS and 2 mM Glutamine). For transfection of cells in 10 cm dishes, cells were detached with Trypsin-EDTA, transfected with a mix of CMV-TLR7 or TLR8 plasmid (750 ng), NFκB-luc plasmid (375 ng) and a transfection reagent and incubated for 48 hours at 37° C. in a humidified 5% CO2 atmosphere. […] Thirty microliters of cells were then dispensed into each well in 384-well plates, where 10 μL of compound in 4% DMSO was already present. Following 6 hours incubation at 37° C., 5% CO2, the luciferase activity was determined by adding 15 μl of Steady Lite Plus substrate (Perkin Elmer) to each well and readout performed on a ViewLux ultraHTS microplate imager (Perkin Elmer). Dose response curves were generated from measurements performed in quadruplicates.

[3] = target: T2, human TLR8 (wild type sequence) (Homo sapiens, UniProt Q9NR97); assay: TLR8 cellular NFκB-luc reporter assay, wild type TLR8; assay type: cell-based; set-up: unit not given here; conditions: lowest effective concentration; for TLR 8 wt LEC: wild type TLR8 (compounds 74 onward)
T2 construct: expressed in transfected cells; host or cells: HEK293
T2 sequence (Q9NR97 27-1041): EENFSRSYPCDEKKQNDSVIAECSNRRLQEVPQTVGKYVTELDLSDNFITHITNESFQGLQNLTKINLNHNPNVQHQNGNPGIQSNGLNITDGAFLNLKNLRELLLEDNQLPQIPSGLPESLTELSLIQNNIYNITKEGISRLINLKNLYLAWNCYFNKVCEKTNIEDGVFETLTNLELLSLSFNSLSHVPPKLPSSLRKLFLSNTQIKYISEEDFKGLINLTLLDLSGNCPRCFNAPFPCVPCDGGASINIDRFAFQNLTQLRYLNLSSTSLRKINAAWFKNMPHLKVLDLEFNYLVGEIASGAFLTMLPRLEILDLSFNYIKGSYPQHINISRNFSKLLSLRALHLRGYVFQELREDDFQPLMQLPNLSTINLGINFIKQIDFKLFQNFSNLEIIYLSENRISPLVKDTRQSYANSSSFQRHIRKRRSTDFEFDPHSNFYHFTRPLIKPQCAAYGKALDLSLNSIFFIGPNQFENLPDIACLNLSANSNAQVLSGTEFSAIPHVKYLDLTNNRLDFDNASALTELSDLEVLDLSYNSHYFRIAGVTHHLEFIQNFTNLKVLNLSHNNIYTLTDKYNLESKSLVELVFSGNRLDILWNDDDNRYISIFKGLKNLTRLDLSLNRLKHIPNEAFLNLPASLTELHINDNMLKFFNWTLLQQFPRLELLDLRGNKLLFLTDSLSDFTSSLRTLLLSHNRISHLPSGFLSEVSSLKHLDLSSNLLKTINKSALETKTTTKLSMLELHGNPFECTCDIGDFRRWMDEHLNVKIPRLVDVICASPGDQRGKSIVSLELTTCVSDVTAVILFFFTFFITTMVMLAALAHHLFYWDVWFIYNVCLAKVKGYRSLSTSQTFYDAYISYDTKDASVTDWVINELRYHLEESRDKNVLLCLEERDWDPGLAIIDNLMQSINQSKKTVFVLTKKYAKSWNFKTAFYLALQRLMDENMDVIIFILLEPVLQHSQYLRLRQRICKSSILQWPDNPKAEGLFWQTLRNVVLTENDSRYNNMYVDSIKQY
Method in brief: as §1

[4] = tested on: HCV replicon in Huh-7 luc/neo cells; assay: Suppression of HCV replicon replication by conditioned media from compound-treated PBMC; assay type: cell-based, HCV type 1 b; conditions: Hepatitis C virus; conditioned media from compound-treated PBMC on Huh-7 luc/neo replicon cells (compounds 74 onward); read-out: PBMC HUH-7 EC50
Method in brief: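 Human PBMC (≥2 donors, RPMI + 10% human AB serum, 2×10^5 cells/well) incubated overnight with compounds; supernatant transferred onto Huh-7 luc/neo HCV 1b replicon cells. After 24 h, replication read as luciferase activity. Recombinant interferon α-2a served as standard.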

| Compound | TLR7-wt_LEC [1] | TLR7-dIRR2_LEC [2] | TLR8-wt_LEC [3] | TLR 8 wt LEC [3] | TLR 7 wt LEC [1] | EC50 [4] [nM] |
| --- | --- | --- | --- | --- | --- | --- |
| CCCC[C@@H](CCO)Nc1nc(N)ncc1OCc1nccc2ccccc12 [Compound 208] | 0.001 | 0.093 |  |  |  |  |
| CCCCNc1nc(N)ncc1OCc1cn2ccccc2n1 [Compound 209] | 0.074 | 0.667 | 0.076 |  |  |  |
| CCCCNc1nc(N)ncc1OCc1ccc(C#N)cc1 [Compound 210] | 0.686 | 0.896 | 0.237 |  |  |  |
| CCCCNc1nc(N)ncc1OCc1cn2ccncc2n1 [Compound 211] | 0.208 | 1.040 | 0.097 |  |  |  |
| CCC[C@@H](CO)Nc1nc(N)ncc1OCCOC [Compound 196] | 1.900 | 0.469 | 0.687 |  |  |  |
| CCCC[C@@H](CO)Nc1nc(N)ncc1OCCOC [Compound 197] | 2.650 | 0.624 | 0.767 |  |  |  |
| CCCCNc1nc(N)ncc1OCC1(C)COC1 [Compound 206] | >25 | 9.450 | >23.81 |  |  |  |
| CCC[C@H](C)Nc1nc(N)ncc1OCc1nccc2ccccc12 [Compound 212] | 0.007 | 0.148 | 0.005 |  |  |  |
| CCCC[C@@H](CO)Nc1nc(N)ncc1OCc1ccc2ccccc2n1 [Compound 198] | 0.076 | 0.511 | 0.089 |  |  |  |
| CCC[C@@H](CO)Nc1nc(N)ncc1OCc1cccc(C)n1 [Compound 202] | 0.164 | 0.089 | 0.049 |  |  |  |
| CCCCNc1nc(N)ncc1OCc1cncn1[C@H](C)c1ccccc1 [Compound 102] |  |  |  | 5.690 | 0.141 | 12 |
| CCCCNc1nc(N)ncc1OCc1cccc2c1OCCCO2 [Compound 138] |  |  |  | 1.050 | 1.040 | 570 |
| CCCCNc1nc(N)ncc1O[C@@H](C)c1ccccc1 [Compound 99] |  |  |  | 1.820 | 8.980 | 1280 |
| CCCCNc1nc(N)ncc1OCCOc1ccc(C(=O)OC)c(OC)c1 [Compound 134] |  |  |  | 2.110 | 2.010 | 935 |
| CCCC[C@@H](CCO)Nc1nc(N)ncc1OCCCc1ccccc1 [Compound 113] |  |  |  | 2.240 | 0.433 | 251 |
| CCCCNc1nc(N)ncc1OCCOc1cc(C(C)C)nc2cc(OC)ccc12 [Compound 142] |  |  |  | 2.370 | >25 | 19700 |

| Compound | TLR7-wt_LEC [1] | TLR7-dIRR2_LEC [2] | TLR8-wt_LEC [3] | TLR 8 wt LEC [3] | TLR 7 wt LEC [1] | EC50 [4] [nM] |
| --- | --- | --- | --- | --- | --- | --- |
| CCCCCC(C)Nc1nc(N)ncc1OCc1ccc2ccccc2n1 (stereo not shown) [Compound 189] |  |  |  | >25 | 11.990 | 17600 |
| C=CC[C@H](CCCC)Nc1nc(N)ncc1OC [Compound 292] | 0.913 | 3.082 |  |  |  |  |
| CCCCNc1nc(N)ncc1OCCCc1cc(OC)c(OC)cc1OC [Compound 161] |  |  |  | 3.480 | 0.672 | 629 |
| CCCCCNc1nc(N)ncc1OC(C)c1ccccc1 (stereo not shown) [Compound 96] |  |  |  | 6.340 | >25 | 4310 |
| CCCCNc1nc(N)ncc1OCC(=O)c1ccc(OC)cc1 [Compound 94] |  |  |  | 3.170 | 1.590 | 696 |
| CCCCNc1nc(N)ncc1OCc1cc(C(F)(F)F)n(C)n1 [Compound 181] |  |  |  | 1.210 | 0.146 | 96 |
| CCCCNc1nc(N)ncc1OCc1nn(C)c(C)c1N [Compound 85] |  |  |  | 2.960 | 0.509 | 209 |
| CCC[C@@H](CCO)Nc1nc(N)ncc1OCc1nccc(OC)c1OC [Compound 87] |  |  |  | 0.567 | 0.013 | 12 |
| CCCCNc1nc(N)ncc1OCc1cc(OC)ccn1 [Compound 171] |  |  |  | 1.060 | 0.396 | 158 |
| CCCCNc1nc(N)ncc1OCCOc1ccnc2ccsc12 [Compound 136] |  |  |  | 2.030 | 2.000 | 275 |
| CCCC[C@@H](CO)Nc1nc(N)ncc1OCc1ncc(C)c(OC)c1C [Compound 194] |  |  |  | 0.164 | 0.031 | 19 |
| CCCCNc1nc(N)ncc1OCCCc1ccccc1Br [Compound 108] |  |  |  | >25 | 6.580 | 6770 |
| CCCC[C@H](CCO)Nc1nc(N)ncc1OCc1ccccc1 [Compound 145] |  |  |  | 1.920 | 2.140 | 632 |
| CCC[C@@H](CO)Nc1nc(N)ncc1OCCCc1ccccc1 [Compound 125] |  |  |  | 0.598 | 1.630 | 336 |
| CCCCNc1nc(N)ncc1OCCC(c1ccccc1)c1ccccc1 [Compound 167] |  |  |  | >25 | 1.200 | 764 |
| CCCCNc1nc(N)ncc1OCCCc1ccccc1OC [Compound 149] |  |  |  | 5.850 | 2.080 | 703 |
